This note sets out measurements from US20250250245A1, “TRIMETAZIDINE SALTS” (LES LABORATOIRES SERVIER, priority 2021, published 2025).

Where a name gives a salt, the structure may show the parent alone.

The first series is described as follows: Trimetazidine nitrosamine formation in aqueous sodium nitrite solution (LC/MS dosage). It counts as physicochemical. The following applies: 6 mg/mL in trimetazidine equivalent (low solubility), 40° C. for 22 hours. How it is done:
In order to model the formation of trimetazidine nitrosamine during the formulation process, an aqueous solution of sodium nitrite was added to the trimetazidine salt. The sodium nitrite mimics the presence of nitrites in water and/or excipients during a drug product manufacturing process.
The trimetazidine salt, in an amount corresponding to 600 mg trimetazidine, was placed in 2 mL volumetric flask. […]
The solution was stirred at 40° C. for 22 hours. The trimetazidine nitrosamine dosage was performed by LC/MS.
In the case of `COc1ccc(CN2CCNCC2)c(OC)c1OC.O=C(O)C(=O)O.O=C(O)C(=O)O` [Comparative Example D], the Trimetazidine nitrosamine content was determined as 83.1 ppm.

Still in this series, the particulars now being: 30 mg/mL in trimetazidine equivalent (low solubility), 40° C. for 22 hours.
In the case of `COc1ccc(CN2CCNCC2)c(OC)c1OC.O=C(O)C(=O)O` [Comparative Example C], the Trimetazidine nitrosamine content was 104.0 ppm.

The series is the same for the next values; noted with them: 300 mg/mL in trimetazidine equivalent, stirred at 40° C. for 22 hours.
In the case of `COc1ccc(CN2CCNCC2)c(OC)c1OC` [Comparative Example A, Trimetazidine dihydrochloride], the Trimetazidine nitrosamine content was found to be 126.0 ppm.
Still for that read-out and setting: the figure for `COc1ccc(CN2CCNCC2)c(OC)c1OC.Cl.Cl` [Comparative Example E] is 22.0 ppm; for `COc1ccc(CN2CCNCC2)c(OC)c1OC.O=C(O)C=CC(=O)O` [Comparative Example F] it is 121.2 ppm; for `COc1ccc(CN2CCNCC2)c(OC)c1OC.O=C(O)C=CC(=O)O` [Comparative Example G] it is 31.9 ppm.
On the same count and under the same terms, the figure for `COc1ccc(CN2CCNCC2)c(OC)c1OC.COc1ccc(CN2CCNCC2)c(OC)c1OC.O=C(O)CCCCC(=O)O` [Example 1, Trimetazidine Hemiadipate] is 0.7 ppm; for Trimetazidine Hemifumarate [Example 5] it is 0.1 ppm; for Trimetazidine Hemimalate [Example 3] it is 0.7 ppm.
On the same count and under the same terms, the result for Trimetazidine Hemiphosphate [Example 7] reads 0.6 ppm.
As for Trimetazidine Hemisuccinate [Example 2], the Trimetazidine nitrosamine content stood at 0.5 ppm.
The same measure, in the same setting: the figure for Trimetazidine Hemisulfate [Example 4] is 0.6 ppm.
With Trimetazidine Hemitartrate [Example 6], the Trimetazidine nitrosamine content is 0.6 ppm.
Same read-out and setting: the result for “trimetazidine hemioxalate [Comparative Example B]” reads 1.1 ppm.

A short description of another series: Solubility of the trimetazidine salts in the aqueous test solution. It counts as physicochemical. The following applies: 300 mg/mL in trimetazidine equivalent not used.
Take `COc1ccc(CN2CCNCC2)c(OC)c1OC.O=C(O)C(=O)O` [Comparative Example C]: the Solubility result is “low solubilities”.
The same measure, in the same setting: the entry for `COc1ccc(CN2CCNCC2)c(OC)c1OC.O=C(O)C(=O)O.O=C(O)C(=O)O` [Comparative Example D] is “low solubilities”.
